Assay results: publication PMC7040082 (Journal of Pharmacokinetics and Pharmacodynamics, 2019)
Values joined by “and” are separate entries in the source; they are usually repeats but may differ in a detail not shown here. Equal entries are not always repeated. Where two headings read alike, the source gives them in different places. One block for each compound: values may come before it.

Assays:
[1] = dog, in vivo; cited from earlier work
[2] = in vivo; cited from earlier work
[3] = for β (PD scale parameter, first arrival time of drug): constrained to 25-30 s; for AUC for CGPC(t) as percent of dose eliminated, 72h-∞: late-time 72 h to ∞ (drug mass remaining at 72 h); for AUC for CGPC(t) as percent of dose eliminated, 1/3-72h: sample-times 20 min to 72 h
[4] = all samples 20 min to 72 h; ref [1]; cited from earlier work
[5] = cited from earlier work; for urinary metformin recovery: human, at 60 to 72 h
[6] = in vivo; conditions: both, mixed-breed, dog, serum, iv, mean of seven dogs
[7] = Noncompartmental (NC) analysis of IV bolus serum concentrations in dogs
[8] = GPC fit, single IV bolus, individual dogs (Dog 1-7)
[9] = GPC fit, single IV bolus, mean of seven dogs

SMILES: Nc1ccc(C(=O)NCC(=O)O)cc1 [PAH, p-aminohippurate]
CLPAH renal clearance [1]: 13.51 mlmin^-1kg^-1 | EPAH arteriovenous extraction ratio [1]: 0.7564 | nominal canine EPAH [1]: 75.6% | EPAH in humans [2]: circa 90%

AUC for CGPC(t) as percent of dose eliminated, 0-72h ([3]; 0 to 72 h (model renal excreted), mean of seven dogs): 78.9% | β (PD scale parameter, first arrival time of drug) ([3]; GPC fit, individual dogs (Dog 1-7)): 30 s and 25 s | β (PD scale parameter, first arrival time of drug) ([3]; GPC fit, mean of seven dogs): 26 s | Peak (time at the maximum of the GPC model) [3, 9]: 2.73 min | a (GD shape parameter) [3, 9]: 0.6235 | b (GD rate parameter) [3, 9]: 0.8882 per h | α (PD shape parameter) [3, 9]: 0.1778 | CL as percent of estimated total renal plasma flow (RPF) ([3]; GPC model mean CL, RPF≈17.86 mlmin^-1kg^-1 from PAH meta-analysis): 84.8% | early concentration peak, total elapsed time ([3]; GPC models, range of seven dogs): 0.66 to 6.17 min | CL as percent of RPF using geometric means ([3]; GPC, GM EPAH of 35 controls): 84.7% | decrease of drug mass in the body from the initial dose ([3]; at 72 h, […] remaining): 5 fold | AUC for CGPC(t) as percent of dose eliminated, 72h-∞ ([3]; mean of seven dogs): 21.1% | decrease of serum concentration from estimated peak concentration ([3]; over 72 h): 1000 fold | AUC for CGPC(t) as percent of dose eliminated, 1/3-72h ([3]; mean of seven dogs): 58.5% | AUC ([6]; AUC, GPC fit, single IV bolus): 23600 ng·h/mL | clearance ([6]; CL GPC, GPC model): 15.1 mL/min/kg | clearance ([6]; CL, GPC fit, single IV bolus): 15.1 mL/min/kg | AUC (E2 fit, single IV bolus, mean of seven dogs): 15.8 mgh/L | p1 (fraction of AUC from first exponential term) (E2 fit, mean of seven dogs): 79.3% | p2 (fraction of AUC from second exponential term) (E2 fit, mean of seven dogs): 20.7% | λ1 (E2 fit, mean of seven dogs): 0.721 h⁻¹ | λ2 (E2 fit, mean of seven dogs): 0.0490 h⁻¹ | CL as percent of expected RPF (E2 mean CL, RPF≈17.86 mlmin^-1kg^-1): 123.7% | CL E2 (biexponential model, mean of seven dogs): 22.1 mlmin^-1kg^-1 | E2 CL-value greater than GPC CL-value (dog 6): 41% | CL as percent of expected RPF ([7]; NC mean CL, RPF≈17.86 mlmin^-1kg^-1): 104.7% | NC CL-value greater than GPC CL-value ([7]; dog 6): 25%
SMILES: CN(C)C(=N)N=C(N)N [metformin, 1,1-dimethylbiguanide]
AUC for CGPC(t) as percent of dose eliminated, 0-72h ([3]; 0 to 72 h, individual dogs 1-7): 91.3% and 71.6% and 84.4% and 79.7% and 67.0% and 82.6% and 75.9% | CL [3, 8]: 11.4 ml/minkg and 14.7 ml/minkg and 9.8 ml/minkg and 11.5 ml/minkg and 26.7 ml/minkg and 19.4 ml/minkg and 12.4 ml/minkg | Peak (time at the maximum of the GPC model) [3, 8]: 1.34 min and 4.85 min and 0.66 min and 6.17 min and 2.21 min and 1.70 min | a (GD shape parameter) [3, 8]: 0.5194 and 0.7629 and 0.3493 and 0.8112 and 0.6689 and 0.6092 and 0.6435 | b (GD rate parameter) [3, 8]: 0.6137 per h and 1.0518 per h and 0.7318 per h and 0.9993 per h and 0.9107 per h and 0.8062 per h and 1.1035 per h | α (PD shape parameter) [3, 8]: 0.1929 and 0.1571 and 0.2644 and 0.1365 and 0.2010 and 0.1726 and 0.1199 | CL GPC ([3]; GPC model, individual dogs 1-7): 14.7 mlmin^-1kg^-1 and 9.8 mlmin^-1kg^-1 and 11.5 mlmin^-1kg^-1 and 26.7 mlmin^-1kg^-1 and 19.4 mlmin^-1kg^-1 and 12.4 mlmin^-1kg^-1 and 11.4 mlmin^-1kg^-1 | AUC for CGPC(t) as percent of dose eliminated, 72h-∞ ([3]; individual dogs 1-7): 8.7% and 28.4% and 15.6% and 20.3% and 33.0% and 17.4% and 24.1% | AUC for CGPC(t) as percent of dose eliminated, 1/3-72h ([3]; individual dogs 1-7): 53.1% and 58.7% and 63.7% and 60.5% and 50.8% and 62.0% | range of serum sample concentrations [4]: 9.78 to 19,100 ng/ml | urine recovery from IV metformin ([5]; 48 h, may have been inflated, ref Pentikäinen et al. [21]): 99.9% | urinary metformin recovery ([5]; ref Table 1 of [19]): 86% | urinary metformin recovery ([5]; ref Table II of [20]): 78.9%
